Source: patent US7153495B2, “Fragrance friendly and cost effective antiperspirant actives and method of making the same” (Reheis, Inc., priority 2004, dated 2006)

Tests used:
human volunteers = assay: Controlled Hot Room Gravimetric Test of antiperspirant efficacy, suspension roll-on; type: in vivo; settings: for Sweat reduction: anhydrous suspension roll-on, about 20% salt on anhydrous basis, hot room
Description: Aluminum zirconium octa salt of example 1 was tested for antiperspirant efficacy against most widely used aluminum zirconium tetrachlorohydrex in a suspension roll-on formulation using the standard hot room procedure. In the standard hot room procedure, human volunteers are subjected to thermal stress and gravimetric determination of the perspiration produced under the thermal stress with and without antiperspirant product applications are made. The data is subjected to analysis of covariance method described by Murphy and Levine (T. D. Murphy, et al., Analysis of Antiperspirant Efficacy Test Results, Journal of the Society of Cosmetic Chemists, Vol. 42, May 1991, pp. 167–197) and compared for percent sweat reduction capacity. Antiperspirancy tests were conducted by an outside independent lab employing “Controlled Hot Room Gravimetric Test” in conformance with FDA guidelines.
The anhydrous suspension roll-ons were prepared using an aluminum zirconium salt concentration of about 20% on an anhydrous basis (about 25% on weight basis) and approximate concentration of other ingredients were Dow Coming 245, 70.5%, Bentone 38, 2.70%, SDA Alcohol 40 (95% alcohol+5% water) 1.8%.
Aluminum zirconium tetrachlorohydrex powder used for comparison had the following chemical analysis. % Al 14.8, % Zr 14.5, % Cl 18.36, % Glycine 11.7, Al/Zr atomic ratio 3.52 and M/Cl atomic ratio of 1.36, % A.S. 77.46.
Sweat reduction values for the octa and tetra salts were 48% and 52% respectively. Results of this study established that amino acid free cost effective aluminum zirconium salts could be prepared without sacrificing efficacy.

[1] = Fragrance compatibility study (colour formation with fragrances, Macbeth Color Spectrophotometer and visual); type: physicochemical; settings: for ΔRG @ 45° C., Average / ΔYB @ 45° C., Average: average of 14 fragrances; for ΔRG @ 45° C., Average / ΔYB @ 45° C., Average / ΔRG @ 45° C. / ΔYB @ 45° C.: four weeks at 45° C.; for ΔRG @ 45° C. / ΔYB @ 45° C.: 0.75% perfume, 20% active
Description: It is known that fragrances in antiperspirants can discolor over time due to the acidic nature and high transition metals concentration especially Fe, Cr, Co, Mn, Cu, and Ni. It is also known that glycine can initiate Schiff base reaction with aldehydes present in fragrances. […] Fragrance dispersions were prepared as follows: 0.75% perfume, 1.0% Arlasolve 200, 20% antiperspirant active (on an anhydrous basis), q.s. DI water. Samples were stored at 45° C. for four weeks and were analyzed for color visually as well as using Macbeth Color Spectrophotometer. Aluminum zirconium tetrachlorohydrex was compared against aluminum zirconium penta and octa salts of Examples 1 and 2. Color was measured as ΔYB (yellow blue) and ΔRG (red green) for all the fourteen fragrances and three actives.

aluminum zirconium octachloro-hydrate [Example 1]
adverse experiences (human volunteers; 37 female subjects, suspension roll-on): No adverse experiences | difference in the reduction in perspiration versus aluminum zirconium tetrachlorohydrex (human volunteers; 37 female subjects, p=0.127): no statistically significant difference | Sweat reduction (human volunteers; 37 female subjects): 48% | discoloration compared with tetrasalt ([1]; 14 fragrances, four weeks of shelf aging at 45° C., visual and instrumental): less discoloration | ΔRG @ 45° C., Average [1]: 6.84 | ΔYB @ 45° C., Average [1]: 8.2 | ΔRG @ 45° C. ([1]; fragrance AC 10278/498988): 1.86 | ΔYB @ 45° C. ([1]; fragrance AC 10278/498988): 3.77 | ΔRG @ 45° C. ([1]; fragrance Bell J-8381): 2.88 | ΔYB @ 45° C. ([1]; fragrance Bell J-8381): 5.56 | ΔRG @ 45° C. ([1]; fragrance Drom99-920): 2.28 | ΔYB @ 45° C. ([1]; fragrance Drom99-920): 4.45 | ΔRG @ 45° C. ([1]; fragrance FFS 52847): 6.37 | ΔYB @ 45° C. ([1]; fragrance FFS 52847): 6.76 | ΔRG @ 45° C. ([1]; fragrance Firm. 430–507): 12.82 | ΔYB @ 45° C. ([1]; fragrance Firm. 430–507): 14.63 | ΔRG @ 45° C. ([1]; fragrance Noville AN 119738): 11.91 | ΔYB @ 45° C. ([1]; fragrance Noville AN 119738): 12.23 | ΔRG @ 45° C. ([1]; fragrance Q-26238): 7.45 | ΔYB @ 45° C. ([1]; fragrance Q-26238): 8.49 | ΔRG @ 45° C. ([1]; fragrance Q-26239): 6.65 | ΔYB @ 45° C. ([1]; fragrance Q-26239): 9.40 | ΔRG @ 45° C. ([1]; fragrance Q-26240): 4.07 | ΔYB @ 45° C. ([1]; fragrance Q-26240): 5.04 | ΔRG @ 45° C. ([1]; fragrance Q-26241): 3.76 | ΔYB @ 45° C. ([1]; fragrance Q-26241): 7.13 | ΔRG @ 45° C. ([1]; fragrance Q-26242): 6.54 | ΔYB @ 45° C. ([1]; fragrance Q-26242): 9.77 | ΔRG @ 45° C. ([1]; fragrance Quest Q-14072): 10.05 | ΔYB @ 45° C. ([1]; fragrance Quest Q-14072): 9.61 | ΔRG @ 45° C. ([1]; fragrance SM 25105D): 8.65 | ΔYB @ 45° C. ([1]; fragrance SM 25105D): 8.57 | ΔRG @ 45° C. ([1]; fragrance Takasago RM 1595): 10.51 | ΔYB @ 45° C. ([1]; fragrance Takasago RM 1595): 10.02

aluminum zirconium tetrachlorohydrex [reference compound]
Sweat reduction (human volunteers; 37 female subjects): 52% | adverse experiences (human volunteers; in vivo): No adverse experiences | ΔRG @ 45° C., Average [1]: 9.48 | ΔYB @ 45° C., Average [1]: 11.94 | ΔRG @ 45° C. ([1]; fragrance AC 10278/498988): 4.67 | ΔYB @ 45° C. ([1]; fragrance AC 10278/498988): 7.12 | ΔRG @ 45° C. ([1]; fragrance Bell J-8381): 4.69 | ΔYB @ 45° C. ([1]; fragrance Bell J-8381): 7.45 | ΔRG @ 45° C. ([1]; fragrance Drom99-920): 5.55 | ΔYB @ 45° C. ([1]; fragrance Drom99-920): 9.69 | ΔRG @ 45° C. ([1]; fragrance FFS 52847): 6.48 | ΔYB @ 45° C. ([1]; fragrance FFS 52847): 8.63 | ΔRG @ 45° C. ([1]; fragrance Firm. 430–507): 18.73 | ΔYB @ 45° C. ([1]; fragrance Firm. 430–507): 20.27 | ΔRG @ 45° C. ([1]; fragrance Noville AN 119738): 16.50 | ΔYB @ 45° C. ([1]; fragrance Noville AN 119738): 16.28 | ΔRG @ 45° C. ([1]; fragrance Q-26238): 8.67 | ΔYB @ 45° C. ([1]; fragrance Q-26238): 11.51 | ΔRG @ 45° C. ([1]; fragrance Q-26239): 8.24 | ΔYB @ 45° C. ([1]; fragrance Q-26239): 12.12 | ΔRG @ 45° C. ([1]; fragrance Q-26240): 8.68 | ΔYB @ 45° C. ([1]; fragrance Q-26240): 10.51 | ΔRG @ 45° C. ([1]; fragrance Q-26241): 7.98 | ΔYB @ 45° C. ([1]; fragrance Q-26241): 11.29 | ΔRG @ 45° C. ([1]; fragrance Q-26242): 9.21 | ΔYB @ 45° C. ([1]; fragrance Q-26242): 14.50 | ΔRG @ 45° C. ([1]; fragrance Quest Q-14072): 14.66 | ΔYB @ 45° C. ([1]; fragrance Quest Q-14072): 16.59 | ΔRG @ 45° C. ([1]; fragrance SM 25105D): 9.49 | ΔYB @ 45° C. ([1]; fragrance SM 25105D): 11.76 | ΔRG @ 45° C. ([1]; fragrance Takasago RM 1595): 9.14 | ΔYB @ 45° C. ([1]; fragrance Takasago RM 1595): 9.49
